# Target: T1, P2X7 receptor (Homo sapiens, UniProt Q99572)
# T1 construct: host or cells: SH-SY5Y
# T1 sequence (Q99572 1-595): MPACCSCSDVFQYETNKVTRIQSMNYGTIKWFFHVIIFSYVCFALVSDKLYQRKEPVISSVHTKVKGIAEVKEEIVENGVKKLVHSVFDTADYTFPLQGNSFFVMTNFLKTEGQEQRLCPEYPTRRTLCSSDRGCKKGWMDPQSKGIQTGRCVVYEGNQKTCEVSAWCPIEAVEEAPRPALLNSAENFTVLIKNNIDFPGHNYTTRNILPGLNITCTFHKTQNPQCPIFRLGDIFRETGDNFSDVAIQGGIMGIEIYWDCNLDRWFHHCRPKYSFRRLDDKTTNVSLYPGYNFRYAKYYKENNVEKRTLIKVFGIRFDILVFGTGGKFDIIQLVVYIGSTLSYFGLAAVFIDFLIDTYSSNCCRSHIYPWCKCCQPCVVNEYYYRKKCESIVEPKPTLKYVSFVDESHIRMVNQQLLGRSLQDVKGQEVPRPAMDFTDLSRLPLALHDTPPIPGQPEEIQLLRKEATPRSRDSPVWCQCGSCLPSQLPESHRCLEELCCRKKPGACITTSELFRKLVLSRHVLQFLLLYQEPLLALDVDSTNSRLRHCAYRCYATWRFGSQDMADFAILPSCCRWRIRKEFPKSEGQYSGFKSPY
# Test: High throughput P2X7 calcium mobilization assay (Example 4A)
# Type: cell-based
# Conditions: SH-SY5Y cells; 50% decrease in fluorescence response of cells exposed to 80 μM BzATP; Table I
# Method in brief: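 Calcium mobilization read by FLIPR as peak fluorescence over 2 min after adding BzATP to a final 80 μM (about EC50). Beforehand, Fluo-4 AM-loaded SH-SY5Y cells sat 1 h at room temperature with compound at 1–2500 nM in pH 7.4 sucrose/HEPES buffer; signal minus no-agonist wells.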
row,IC50 [nM],Structure (SMILES)
1,≤ 2000,"O=C(NCC1(c2ccc(Cl)nc2)CCCCC1)c1sc(-c2ncccn2)nc1C(F)(F)F [Compound 291, N-{[1-(6-chloropyridin-3-yl)cyclohexyl]methyl}-2-pyrimidin-2-yl-4-(trifluoromethyl)-1,3-thiazole-5-carboxamide]"
2,≤ 2000,"O=C(NCC1(c2cccnc2)CCCCC1)c1sc(N2CCC(O)CC2)nc1C(F)(F)F [Compound 295, 2-(4-hydroxypiperidin-1-yl)-N-[(1-pyridin-3-ylcyclohexyl)methyl]-4-(trifluoromethyl)-1,3-thiazole-5-carboxamide]"
3,≤ 2000,"CC(C)n1cc(C2(CNC(=O)c3sc(-c4ncccn4)nc3C(F)(F)F)CCCCC2)cn1 [Compound 297, N-{[1-(1-isopropyl-1H-pyrazol-4-yl)cyclohexyl]methyl}-2-pyrimidin-2-yl-4-(trifluoromethyl)-1,3-thiazole-5-carboxamide]"
4,≤ 2000,"CCc1nc(-c2ncccn2)sc1C(=O)NCC1(c2ccc(Cl)nc2)CCCCC1 [Compound 298, N-{[1-(6-chloropyridin-3-yl)cyclohexyl]methyl}-4-ethyl-2-pyrimidin-2-yl-1,3-thiazole-5-carboxamide]"
5,≤ 2000,"NC1CCN(c2nc(C(F)(F)F)c(C(=O)NCC3(c4cccnc4)CCCCC3)s2)CC1 [Compound 303, 2-(4-aminopiperidin-1-yl)-N-[(1-pyridin-3-ylcyclohexyl)methyl]-4-(trifluoromethyl)-1,3-thiazole-5-carboxamide]"
6,≤ 2000,"O=C(NCC1(c2cccnc2)CCCCC1)c1sc(-n2ncccc2=O)nc1C(F)(F)F [Compound 307, 2-(6-oxopyridazin-1(6H)-yl)-N-[(1-pyridin-3-ylcyclohexyl)methyl]-4-(trifluoromethyl)-1,3-thiazole-5-carboxamide]"
7,≤ 2000,"O=C(NCC1(c2cccnc2)CCCCC1)c1sc(-n2ccnn2)nc1C(F)(F)F [Compound 308, N-[(1-pyridin-3-ylcyclohexyl)methyl]-2-(1H-1,2,3-triazol-1-yl)-4-(trifluoromethyl)-1,3-thiazole-5-carboxamide]"
8,≤ 2000,"O=C(NCC1(c2cccnc2)CCCCC1)c1sc(-n2nccn2)nc1C(F)(F)F [Compound 309, N-[(1-pyridin-3-ylcyclohexyl)methyl]-2-(2H-1,2,3-triazol-2-yl)-4-(trifluoromethyl)-1,3-thiazole-5-carboxamide]"
9,≤ 2000,"O=C(NCC1(c2cccnc2)CCCCC1)c1sc(-n2cncn2)nc1C(F)(F)F [Compound 310, N-[(1-pyridin-3-ylcyclohexyl)methyl]-2-(1H-1,2,4-triazol-1-yl)-4-(trifluoromethyl)-1,3-thiazole-5-carboxamide]"
10,≤ 2000,"CN1CCN(C2(CNC(=O)c3sc(-c4ncccn4)nc3C(F)(F)F)CCCCC2)CC1 [Compound 312, N-{[1-(4-methylpiperazin-1-yl)cyclohexyl]methyl}-2-pyrimidin-2-yl-4-(trifluoromethyl)-1,3-thiazole-5-carboxamide]"
11,≤ 2000,"O=C(NCC1(N2CCNCC2)CCCCC1)c1sc(-c2ncccn2)nc1C(F)(F)F [Compound 313, N-[(1-piperazin-1-ylcyclohexyl)methyl]-2-pyrimidin-2-yl-4-(trifluoromethyl)-1,3-thiazole-5-carboxamide]"

# Continued, compound first:
row,Structure (SMILES),IC50 [nM]
1,"Cc1nc(-c2ncccn2)sc1C(=O)NCC(CC(C)C)c1ccc(C(F)(F)F)cc1 (stereo not shown) [Compound 290, 4-methyl-N-{4-methyl-2-[4-(trifluoromethyl)phenyl]pentyl}-2-pyrimidin-2-yl-1,3-thiazole-5-carboxamide]",≤ 2000
2,"CC(C)CC(CNC(=O)c1sc(-c2ncccn2)nc1C(F)(F)F)c1ccc(Cl)nc1 (stereo not shown) [Compound 292, N-[2-(6-chloropyridin-3-yl)-4-methylpentyl]-2-pyrimidin-2-yl-4-(trifluoromethyl)-1,3-thiazole-5-carboxamide]",≤ 2000
3,"O=C(NCC1(c2cccnc2)CCCCC1)c1sc(-n2ccccc2=O)nc1C(F)(F)F [Compound 293, 2-(2-oxopyridin-1(2H)-yl)-N-[(1-pyridin-3-ylcyclohexyl)methyl]-4-(trifluoromethyl)-1,3-thiazole-5-carboxamide]",≤ 2000
4,"O=C(NCC1(c2cccnc2)CCCCC1)c1sc(N2CCOCC2)nc1C(F)(F)F [Compound 294, 2-morpholin-4-yl-N-[(1-pyridin-3-ylcyclohexyl)methyl]-4-(trifluoromethyl)-1,3-thiazole-5-carboxamide]",≤ 2000
5,"O=C(NCC1(N2CCCCC2)CCCCC1)c1sc(-c2ncccn2)nc1C(F)(F)F [Compound 296, N-[(1-piperidin-1-ylcyclohexyl)methyl]-2-pyrimidin-2-yl-4-(trifluoromethyl)-1,3-thiazole-5-carboxamide]",≤ 2000
6,"CCc1nc(-c2ncccn2)sc1C(=O)NCC(CC(C)C)c1ccc(Cl)nc1 (stereo not shown) [Compound 299, N-[2-(6-chloropyridin-3-yl)-4-methylpentyl]-4-ethyl-2-pyrimidin-2-yl-1,3-thiazole-5-carboxamide]",≤ 2000
7,"O=C(NCC1(c2cccnc2)CCCCC1)c1sc(N2CCNCC2)nc1C(F)(F)F [Compound 300, 2-piperazin-1-yl-N-[(1-pyridin-3-ylcyclohexyl)methyl]-4-(trifluoromethyl)-1,3-thiazole-5-carboxamide]",≤ 2000
8,"CC(C)(C)OC(=O)NC1CCN(c2nc(C(F)(F)F)c(C(=O)NCC3(c4cccnc4)CCCCC3)s2)CC1 [Compound 301, tert-butyl {1-[5-{[(1-pyridin-3-ylcyclohexyl)methyl]carbamoyl}-4-(trifluoromethyl)-1,3-thiazol-2-yl]piperidin-4-yl}carbamate]",≤ 2000
9,"O=C(NCC1(c2cccnc2)CCCCC1)c1sc(N2CCC(N3CCCC3)CC2)nc1C(F)(F)F [Compound 302, N-[(1-pyridin-3-ylcyclohexyl)methyl]-2-(4-pyrrolidin-1-ylpiperidin-1-yl)-4-(trifluoromethyl)-1,3-thiazole-5-carboxamide]",≤ 2000
10,"CC(C)CC(CNC(=O)c1sc(-c2ncccn2)nc1C(F)(F)F)c1ccc(C(F)(F)F)nc1 (stereo not shown) [Compound 304, N-{4-methyl-2-[6-(trifluoromethyl)pyridin-3-yl]pentyl}-2-pyrimidin-2-yl-4-(trifluoromethyl)-1,3-thiazole-5-carboxamide]",≤ 2000
11,"CCc1nc(-c2ncccn2)sc1C(=O)NCC(CC(C)C)c1ccc(C(F)(F)F)nc1 (stereo not shown) [Compound 305, 4-ethyl-N-{4-methyl-2-[6-(trifluoromethyl)pyridin-3-yl]pentyl}-2-pyrimidin-2-yl-1,3-thiazole-5-carboxamide]",≤ 2000
12,"Cc1nc(-c2ncccn2)sc1C(=O)NCC(CC(C)C)c1ccc(C(F)(F)F)nc1 (stereo not shown) [Compound 306, 4-methyl-N-{4-methyl-2-[6-(trifluoromethyl)pyridin-3-yl]pentyl}-2-pyrimidin-2-yl-1,3-thiazole-5-carboxamide]",≤ 2000
13,"Cc1nc(-c2cccnc2)sc1C(=O)NCC1(c2cccnc2)CCCCC1 [Compound 311, 4-methyl-2-pyridin-3-yl-N-[(1-pyridin-3-ylcyclohexyl)methyl]-1,3-thiazole-5-carboxamide]",≤ 2000
14,"O=C(NCC(c1ccc(Cl)cc1)N1CCOCC1)c1sc(-c2ncccn2)nc1C(F)(F)F (stereo not shown) [Compound 314, N-[2-(4-chlorophenyl)-2-morpholin-4-ylethyl]-2-pyrimidin-2-yl-4-(trifluoromethyl)-1,3-thiazole-5-carboxamide]",≤ 2000

# — patent US9133204B2, “5-membered heterocyclic amides and related compounds” (H. Lundbeck A/S, priority 2007, dated 2015)
